{"source": "patent US11046640B2", "about": "“Water-soluble L-DOPA esters” (BERLIREM GMBH, priority 2015, dated 2021)", "key": {"Solubility in water": {"assay": "Solubility in water", "assay_type": "physicochemical", "conditions": "for solubility in water: hydrochloride salt; for Aqueous solubility: water", "protocol": "40 mg of lyophilized L-DOPA glycerol ester hydrochloride was dissolved in 20 μl of water resulting in a viscous liquid. The aqueous solubility of L-DOPA glycerol ester hydrochloride is ≥2 g/ml."}, "[1]": {"assay": "Hydrolytic stability at selected pH values (TLC)", "assay_type": "physicochemical", "protocol": "Each 20 mg of lyophilized L-DOPA glycerol ester hydrochloride as well as L-DOPA ethyl ester hydrochloride were dissolved in 250 μl of buffer solution which was de-gassed for 5 min under argon.\nThe ester solutions were stored at 32° C."}, "[2]": {"target": "T1, carboxylesterase 1 (isoform c, human, recombinant) (Homo sapiens, UniProt P23141)", "T1 construct": "purchased Sigma-Aldrich, Munich, Germany", "T1 sequence (P23141 18-566 isoform P23141-3 limits assumed)": "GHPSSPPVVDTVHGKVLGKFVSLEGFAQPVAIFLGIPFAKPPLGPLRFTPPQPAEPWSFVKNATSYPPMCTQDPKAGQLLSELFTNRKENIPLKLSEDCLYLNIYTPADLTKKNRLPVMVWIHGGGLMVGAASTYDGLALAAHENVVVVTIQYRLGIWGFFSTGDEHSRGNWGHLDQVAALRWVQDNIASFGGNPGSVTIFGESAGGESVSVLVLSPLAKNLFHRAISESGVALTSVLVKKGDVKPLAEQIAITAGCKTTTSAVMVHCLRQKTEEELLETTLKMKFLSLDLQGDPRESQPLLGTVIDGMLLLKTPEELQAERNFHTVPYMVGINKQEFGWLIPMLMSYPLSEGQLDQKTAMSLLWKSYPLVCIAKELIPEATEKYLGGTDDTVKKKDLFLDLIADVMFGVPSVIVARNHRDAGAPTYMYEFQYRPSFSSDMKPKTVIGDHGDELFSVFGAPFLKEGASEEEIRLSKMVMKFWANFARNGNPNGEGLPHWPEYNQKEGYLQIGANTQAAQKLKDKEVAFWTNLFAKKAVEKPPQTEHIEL", "assay": "Enzymatic ester cleavage using isolated carboxylesterase", "assay_type": "in vitro ADME", "protocol": "Enzymatic Ester Cleavage Using Isolated Carboxylesterase\nAfterwards 5 μl carboxylestaerase 1 (isoform c, human, recombinant (Sigma-Aldrich, Munich, Germany)) with activity 1000 units/mg protein (concentration: 5 mg/ml) was added. The mixture was incubated for 60 and 180 min at 37° C."}, "[3]": {"conditions": "cited from earlier work"}}}
{"smiles": "CCOC(=O)[C@@H](N)Cc1ccc(O)c(O)c1.Cl", "note": "[Ethyl-Dopa•HCl, L-DOPA ethyl ester hydrochloride]", "values": [{"measurement": "solubility in water", "setting": "Solubility in water", "value": "up to 400 mg/ml"}, {"measurement": "Aqueous solubility", "setting": "Solubility in water", "value": 400, "unit": "mg/mL"}, {"measurement": "Stability (days at pH 7.4, Soerensen buffer)", "setting": "[1]", "value": 2, "unit": "days"}, {"measurement": "Time to complete hydrolysis (min) (with carboxylesterase)", "setting": "[2]", "value": 60, "unit": "min"}]}
{"smiles": "Cl.N[C@@H](Cc1ccc(O)c(O)c1)C(=O)OCC(O)CO", "note": "(stereo partly drawn) [Gly-Dopa•HCl, L-DOPA glycerol ester hydrochloride]", "values": [{"measurement": "Aqueous solubility", "setting": "Solubility in water; hydrochloride", "value": 2000, "unit": "mg/mL"}, {"measurement": "Aqueous solubility", "setting": "Solubility in water; listed as L-DOPA glycerol ester hydrochloride, hydrochloride", "value": "≥ 2000", "unit": "mg/mL"}, {"measurement": "hydrolytic stability", "setting": "[1]; all pH values (1, 4.5, 7.4, 8.5), 32° C., over 14 days", "value": "stable"}, {"measurement": "Stability (days at pH 7.4, Soerensen buffer)", "setting": "[1]", "value": 14, "unit": "days"}, {"measurement": "Time to complete hydrolysis (min) (with carboxylesterase)", "setting": "[2]", "value": ">60", "unit": "min"}, {"measurement": "ester remaining", "setting": "[2]; carboxylesterase 1, 37° C., after 180 min", "value": "only traces"}]}
{"smiles": "CCOC(=O)[C@@H](N)Cc1ccc(O)c(O)c1", "note": "[L-DOPA ethyl ester]", "values": [{"measurement": "solubility in water", "setting": "Solubility in water", "value": 400, "unit": "mg/mL"}, {"measurement": "time within which the ester is cleaved", "setting": "[1]; pH 7.4, 32° C.", "value": "≤ 2", "unit": "days"}, {"measurement": "time within which the ester is cleaved", "setting": "[1]; pH 8.5, 32° C.", "value": "≤ 2", "unit": "days"}, {"measurement": "hydrolytic stability", "setting": "[1]; pH=1, 32° C., over measured time period", "value": "stable"}, {"measurement": "time within which the ester is cleaved", "setting": "[1]; pH=4.5, 32° C.", "value": "≤ 14", "unit": "days"}, {"measurement": "ester cleavage", "setting": "[2]; carboxylesterase 1, 37° C., after 60 min", "value": "complete"}, {"measurement": "solubility", "setting": "[3]; at pH 8.2, free base, US 6,696,600 B2", "value": 52, "unit": "mg/mL"}]}
{"smiles": "N[C@@H](Cc1ccc(O)c(O)c1)C(=O)O", "note": "[L-DOPA, L-3,4-Dihydroxyphenylalanin]", "values": [{"measurement": "water solubility", "setting": "[3]; reported, Fernandez & Odin 2011", "value": 20, "unit": "mg/mL"}]}
